The test system of the assay is BDF1 mice, B16 melanoma ip, median survival T/C. Description: NCI In Vivo Anticancer Drug Screen. Data for tumor model B16 Melanoma (intraperitoneal) in B6D2F1 (BDF1) mice. As to conditions: endpoint: median survival time, higher = longer survival. In short, it runs like this:
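Transplantable tumor model; survival or tumor size measured; reported as T/C, treated over vehicle control.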

Setting [1] is: dose: 12.5 mg/kg/injection, schedule: Q01DX009 (ip), vehicle: Klucel (hydroxypropylcellulose) (HPC).
Where [2] appears, read: dose: 50.0 mg/kg/injection, schedule: Q01DX009 (ip), vehicle: Klucel (hydroxypropylcellulose) (HPC).
[3] abbreviates: dose: 25.0 mg/kg/injection, schedule: Q01DX009 (ip), vehicle: saline with Tween-80.
The mark [4] stands for this setting: dose: 50.0 mg/kg/injection, schedule: Q01DX009 (ip), vehicle: saline with Tween-80.
Where [5] appears, read: dose: 100.0 mg/kg/injection, schedule: Q01DX009 (ip), vehicle: saline with Tween-80.
The mark [6] stands for this setting: dose: 200.0 mg/kg/injection, schedule: Q04DX003 (ip), vehicle: Klucel (hydroxypropylcellulose) (HPC).
[7] abbreviates: dose: 3.13 mg/kg/injection, schedule: Q01DX009 (ip), vehicle: saline with Tween-80.
[8] abbreviates: dose: 6.25 mg/kg/injection, schedule: Q01DX009 (ip), vehicle: saline with Tween-80.
Setting [9] is: dose: 200.0 mg/kg/injection, schedule: Q01DX009 (ip), vehicle: saline with Tween-80.
The mark [10] stands for this setting: dose: 400.0 mg/kg/injection, schedule: Q01DX009 (ip), vehicle: saline with Tween-80.
[11] abbreviates: dose: 100.0 mg/kg/injection, schedule: Q01DX009 (ip), vehicle: Klucel (hydroxypropylcellulose) (HPC).
The mark [12] stands for this setting: dose: 200.0 mg/kg/injection, schedule: Q01DX009 (ip), vehicle: Klucel (hydroxypropylcellulose) (HPC).
The mark [13] stands for this setting: dose: 400.0 mg/kg/injection, schedule: Q01DX009 (ip), vehicle: Klucel (hydroxypropylcellulose) (HPC).
Setting [14] is: dose: 25.0 mg/kg/injection, schedule: Q01DX009 (ip), vehicle: Klucel (hydroxypropylcellulose) (HPC).
[15] abbreviates: dose: 6.25 mg/kg/injection, schedule: Q01DX009 (ip), vehicle: Klucel (hydroxypropylcellulose) (HPC).
Setting [16] is: dose: 1.56 mg/kg/injection, schedule: Q01DX009 (ip), vehicle: saline with Tween-80.
[17] abbreviates: dose: 3.12 mg/kg/injection, schedule: Q01DX009 (ip), vehicle: saline with Tween-80.
The mark [18] stands for this setting: dose: 12.5 mg/kg/injection, schedule: Q01DX009 (ip), vehicle: saline with Tween-80.

Values joined by “and” are separate entries in the source; they are usually repeats but may differ in a detail not shown here. Identical values can stand only once. Inconclusive results and toxic doses are left out. Square brackets hold non-standard residues; d marks the D form. Peptide text beside a SMILES is read from it. * marks the point of attachment. ξ: configuration not given here. Cbz = O=C(OCc1ccccc1)*; ξI = CCC(C)C(N)C(=O)O

On to `CCC(C)(C[NH-])C[NH-].[Cl][Pt+2][Cl]`, for which the T/C by setting is: (dose: 0.5 mg/kg/injection, schedule: Q01DX009 (ip), vehicle: carboxymethylcellulose (CMC)) 159 % of control; (dose: 1.0 mg/kg/injection, schedule: Q01DX009 (ip), vehicle: carboxymethylcellulose (CMC)) 180 % of control.
Turning to `O=C(/C(=C/c1ccccc1)CBr)c1ccccc1`, the T/C is, setting by setting: (dose: 0.13 mg/kg/injection, schedule: Q01DX009 (ip), vehicle: saline with Tween-80) 89 % of control; (dose: 0.25 mg/kg/injection, schedule: Q01DX009 (ip), vehicle: saline with Tween-80) 100 % of control; (dose: 0.5 mg/kg/injection, schedule: Q01DX009 (ip), vehicle: saline with Tween-80) 86 % of control and 100 % of control; (dose: 1.0 mg/kg/injection, schedule: Q01DX009 (ip), vehicle: saline with Tween-80) 89 % of control and 92 % of control; (dose: 2.0 mg/kg/injection, schedule: Q01DX009 (ip), vehicle: saline with Tween-80) 89 % of control; (dose: 4.0 mg/kg/injection, schedule: Q01DX009 (ip), vehicle: saline with Tween-80) 89 % of control.
With `O=[N+]([O-])c1ccc(C2OC2c2ccccc2)cc1` (centres undefined), the T/C is 100 % of control (dose: 9.38 mg/kg/injection, schedule: Q01DX009 (ip), vehicle: saline with Tween-80); 103 % of control under setting [1]; 105 % of control (dose: 18.7 mg/kg/injection, schedule: Q01DX009 (ip), vehicle: saline with Tween-80); 97 % of control (dose: 37.5 mg/kg/injection, schedule: Q01DX009 (ip), vehicle: saline with Tween-80); 100 % of control under setting [2]; 102 % of control (dose: 75.0 mg/kg/injection, schedule: Q01DX009 (ip), vehicle: saline with Tween-80). In addition, for the setting “dose: 150.0 mg/kg/injection, schedule: Q01DX009 (ip), vehicle: saline with Tween-80”, the T/C was 97 % of control.
As for `CCNc1nc(NCC)nc(SC)n1`, the T/C under setting [3] is 97 % of control, the T/C under setting [4] is 87 % of control and the T/C under setting [5] is 105 % of control.
For the molecule `Cc1ccc(C)c(NC(=O)Nc2ccccc2C)c1`, the T/C is, setting by setting: (dose: 50.0 mg/kg/injection, schedule: Q04DX003 (ip), vehicle: Klucel (hydroxypropylcellulose) (HPC)) 87 % of control; under setting [6], 87 % of control.
`FC(F)(F)c1ccc2c(c1)N(CCCN1CCN(CCN3CCOCC3)CC1)c1ccccc1S2`: the T/C is, setting by setting: (dose: 0.37 mg/kg/injection, schedule: Q01DX009 (ip), vehicle: saline) 97 % of control; (dose: 0.75 mg/kg/injection, schedule: Q01DX009 (ip), vehicle: saline) 87 % of control; (dose: 1.5 mg/kg/injection, schedule: Q01DX009 (ip), vehicle: saline) 115 % of control; (dose: 3.0 mg/kg/injection, schedule: Q01DX009 (ip), vehicle: saline) 112 % of control.
`CCCCC#CCOCC(O)CCl` (centres undefined): the T/C under setting [7] was 118 % of control, the T/C under setting [8] was 114 % of control and the T/C under setting [3] is 101 % of control.
As for `COc1ccc2c(c1)CN(S(=O)(=O)c1ccc(C)cc1)C=CC2=O`, the T/C was 108 % of control (dose: 100.0 mg/kg/injection, schedule: Q04DX003 (ip), vehicle: Klucel (hydroxypropylcellulose) (HPC)); 103 % of control under setting [6]; 97 % of control (dose: 400.0 mg/kg/injection, schedule: Q04DX003 (ip), vehicle: Klucel (hydroxypropylcellulose) (HPC)).
Take `Cc1cc(=O)[nH]c(Nc2ccccc2)n1`: the T/C is, setting by setting: under setting [5], 105 % of control; under setting [9], 92 % of control; under setting [10], 102 % of control.
On to `CCCCOC(=O)C1C(C(=O)OCCCC)C2(Cl)C(Cl)=C(Cl)C1(Cl)C2(Cl)Cl` (centres undefined), for which the T/C is 114 % of control under setting [11], 116 % of control under setting [12] and 113 % of control under setting [13].
`Cc1cccc(C)c1NC(=O)Nc1ccc(Cl)c(Cl)c1`: the T/C is 95 % of control (dose: 25.0 mg/kg/injection, schedule: Q01DX009 (ip), vehicle: other); 99 % of control (dose: 50.0 mg/kg/injection, schedule: Q01DX009 (ip), vehicle: other); 87 % of control and 103 % of control (dose: 100.0 mg/kg/injection, schedule: Q01DX009 (ip), vehicle: other).
For the molecule `Clc1ccc2c(Cl)ncnc2c1`, the T/C runs as follows: under setting [1], 100 % of control; under setting [14], 100 % of control; under setting [2], 102 % of control; under setting [11], 100 % of control; under setting [12], 90 % of control.
As to `CCC(C)C(NC(=O)CNC(=O)CNC(=O)OCc1ccccc1)C(=O)O` (stereo not drawn) (Cbz-Gly-Gly-[ξI]-OH), the T/C under setting [4] was 94 % of control, the T/C under setting [5] is 92 % of control, the T/C under setting [9] was 91 % of control and the T/C under setting [10] is 86 % of control.
Take `O=C(O)CCCSc1nc2ccccc2s1`: the T/C runs as follows: under setting [5], 100 % of control; under setting [9], 95 % of control.
`O=S(=O)(CCCl)c1ccc2ccccc2c1`: the T/C under setting [15] is 100 % of control, the T/C under setting [1] was 104 % of control, the T/C under setting [14] is 106 % of control and the T/C under setting [2] is 104 % of control.
Consider `C/C(=N\NC(N)=O)C1=C(O)C(C(C)C)NC1=O` (centres undefined), for which the T/C by setting is: under setting [4], 91 % of control; under setting [5], 86 % of control; under setting [9], 91 % of control; under setting [10], 91 % of control.
`Cc1[nH]ccc2c(C)c3nc4ccccc4c3cc12`: the T/C under setting [14] was 161 % of control.
Consider `COC(=O)[C@@]12OC[C@]34[C@H]([C@@H](O)[C@@H]1O)[C@@]1(C)C=C(OC5OC(CO)C(O)C(O)C5O)C(=O)C(C)[C@@H]1C[C@H]3OC(=O)[C@H](OC(=O)C=C(C)C)[C@@H]24` (some centres undefined), for which the T/C was 108 % of control (dose: 0.25 mg/kg/injection, schedule: Q01DX009 (ip), vehicle: saline + alcohol); 108 % of control (dose: 0.5 mg/kg/injection, schedule: Q01DX009 (ip), vehicle: saline + alcohol); 108 % of control (dose: 1.0 mg/kg/injection, schedule: Q01DX009 (ip), vehicle: saline + alcohol); 105 % of control (dose: 2.0 mg/kg/injection, schedule: Q01DX009 (ip), vehicle: saline + alcohol); 113 % of control (dose: 4.0 mg/kg/injection, schedule: Q01DX009 (ip), vehicle: saline + alcohol); 103 % of control (dose: 8.0 mg/kg/injection, schedule: Q01DX009 (ip), vehicle: saline + alcohol).
With `CC(C)c1c[nH]c(=O)[nH]c1=O`, the T/C under setting [11] was 100 % of control, the T/C under setting [12] was 92 % of control and the T/C under setting [13] was 95 % of control.
As for `CCCN(C)N=Nc1ccccc1C(=O)O`, the T/C is, setting by setting: under setting [16], 100 % of control; under setting [17], 103 % of control; under setting [7], 111 % of control; under setting [15], 116 % of control; under setting [8], 101 % of control and 102 % of control; under setting [1], 110 % of control. For the same molecule, the T/C runs as follows: under setting [18], 98 % of control and 102 % of control and 105 % of control; under setting [14], 104 % of control; under setting [3], 102 % of control and 107 % of control and 115 % of control; under setting [2], 107 % of control; under setting [4], 100 % of control.
`O=C1NC(c2ccccc2)N=C2Oc3ccccc3C=C12` (centres undefined): the T/C reads like this: under setting [16], 107 % of control; under setting [17], 109 % of control and 113 % of control; under setting [8], 108 % of control and 117 % of control; under setting [18], 117 % of control; under setting [3], 117 % of control.
For the molecule `CCN(CC)S(=O)(=O)c1ccc(OC)c(N)c1`, the T/C by setting is: under setting [3], 107 % of control; under setting [4], 100 % of control; (dose: 50.0 mg/kg/injection, schedule: Q04DX003 (ip), vehicle: saline with Tween-80) 104 % of control; under setting [5], 105 % of control; (dose: 100.0 mg/kg/injection, schedule: Q04DX003 (ip), vehicle: saline with Tween-80) 104 % of control.

The record behind these values is PubChem BioAssay AID192 (DTP/NCI, 2004).
